This is an account of results in ChEMBL document CHEMBL1201862, “PubChem BioAssay data set” (2004).

Structures are written as SMILES. Active and inactive are the calls of the source.

In assay [1] the target is Kallikrein-7 (Homo sapiens, UniProt P49862). The assay is described as follows: Fluorescence Intensity-based biochemical primary high throughput dose response assay to identify activators of kallikrein-7 (K7) zymogen.
Assay [2] addresses Induced myeloid leukemia cell differentiation protein Mcl-1 (Homo sapiens, UniProt Q07820). The assay is classed as functional.
A short description of assay [3]: general mammalian cell viability loss – inhibitor set, cherry-pick, set 2, cytotoxicity control for miR-122 modulator project, dose response (AID 720697). Type of assay: functional, cell-based.
A short description of assay [4]: viability loss in HeLa cells – cytotoxicity control for MgcRacGAP inhibitor project, dose response (AID 624300). The assay is classed as functional.
Assay [5] addresses T1, Caspase-6 (Homo sapiens, UniProt P55212).
T1 sequence (P55212 whole entry): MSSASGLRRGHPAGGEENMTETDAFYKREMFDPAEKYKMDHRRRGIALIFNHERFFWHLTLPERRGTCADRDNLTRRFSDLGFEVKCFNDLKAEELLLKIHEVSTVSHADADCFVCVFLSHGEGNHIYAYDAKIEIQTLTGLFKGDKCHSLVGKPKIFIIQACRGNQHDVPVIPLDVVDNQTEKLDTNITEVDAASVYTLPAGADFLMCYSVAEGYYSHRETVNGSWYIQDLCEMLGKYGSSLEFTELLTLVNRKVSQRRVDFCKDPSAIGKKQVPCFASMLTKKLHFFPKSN
The assay is described as follows: inhibition of CASP6 peptide cleavage – biochemical, VEID-R110 fluorescence, cherry-pick, dose response (AID 720632).

Assay [6] has as its target Voltage-dependent T-type calcium channel subunit alpha-1H (Homo sapiens, UniProt O95180). The assay is classed as functional.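 Also: channel activity triggered by adding a high calcium stimulation buffer.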
The target of assay [7] is T2, 1-phosphatidylinositol 4,5-bisphosphate phosphodiesterase beta-3 (Homo sapiens, UniProt Q01970).
T2 sequence (Q01970 whole entry): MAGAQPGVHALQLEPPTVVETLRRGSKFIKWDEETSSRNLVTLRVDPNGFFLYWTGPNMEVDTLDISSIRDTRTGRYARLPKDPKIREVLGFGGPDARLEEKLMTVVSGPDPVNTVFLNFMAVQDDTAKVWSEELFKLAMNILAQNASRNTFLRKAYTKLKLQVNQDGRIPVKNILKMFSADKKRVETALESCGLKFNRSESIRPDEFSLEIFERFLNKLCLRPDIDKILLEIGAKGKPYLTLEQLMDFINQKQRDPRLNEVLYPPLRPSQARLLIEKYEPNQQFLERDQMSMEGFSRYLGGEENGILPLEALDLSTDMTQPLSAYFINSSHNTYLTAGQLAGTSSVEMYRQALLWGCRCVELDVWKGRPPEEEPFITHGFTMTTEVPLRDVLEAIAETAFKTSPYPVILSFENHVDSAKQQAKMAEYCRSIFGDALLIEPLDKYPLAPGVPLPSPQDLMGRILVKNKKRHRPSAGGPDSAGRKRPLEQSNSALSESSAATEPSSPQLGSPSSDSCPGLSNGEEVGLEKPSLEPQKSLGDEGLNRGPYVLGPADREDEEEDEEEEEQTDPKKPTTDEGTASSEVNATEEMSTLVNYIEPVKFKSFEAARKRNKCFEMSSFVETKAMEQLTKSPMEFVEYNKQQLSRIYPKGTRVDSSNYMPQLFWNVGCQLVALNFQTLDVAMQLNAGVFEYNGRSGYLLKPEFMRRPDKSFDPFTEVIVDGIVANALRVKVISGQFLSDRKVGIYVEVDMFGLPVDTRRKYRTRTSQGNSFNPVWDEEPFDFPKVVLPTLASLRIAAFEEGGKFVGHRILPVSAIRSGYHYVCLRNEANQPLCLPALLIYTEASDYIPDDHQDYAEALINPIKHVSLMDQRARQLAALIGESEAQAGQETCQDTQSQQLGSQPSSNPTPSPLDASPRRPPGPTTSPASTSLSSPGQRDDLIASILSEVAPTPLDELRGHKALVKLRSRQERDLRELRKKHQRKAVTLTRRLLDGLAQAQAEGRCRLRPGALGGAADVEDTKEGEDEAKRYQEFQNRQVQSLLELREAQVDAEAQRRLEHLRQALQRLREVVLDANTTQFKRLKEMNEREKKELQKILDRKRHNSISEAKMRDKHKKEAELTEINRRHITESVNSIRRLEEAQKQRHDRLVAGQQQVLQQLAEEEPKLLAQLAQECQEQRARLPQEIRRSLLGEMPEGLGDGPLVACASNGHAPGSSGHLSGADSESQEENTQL
The assay is described as follows: Fluorescence-based biochemical high throughput dose response assay to identify inhibitors of phospholipase C isozymes (PLC-B3).

Assay [8] concerns the target T3, Corticotropin-releasing factor receptor 2/Corticotropin-releasing factor-binding protein (Homo sapiens, UniProt P24387+Q13324).
T3 sequence (Q13324 whole entry): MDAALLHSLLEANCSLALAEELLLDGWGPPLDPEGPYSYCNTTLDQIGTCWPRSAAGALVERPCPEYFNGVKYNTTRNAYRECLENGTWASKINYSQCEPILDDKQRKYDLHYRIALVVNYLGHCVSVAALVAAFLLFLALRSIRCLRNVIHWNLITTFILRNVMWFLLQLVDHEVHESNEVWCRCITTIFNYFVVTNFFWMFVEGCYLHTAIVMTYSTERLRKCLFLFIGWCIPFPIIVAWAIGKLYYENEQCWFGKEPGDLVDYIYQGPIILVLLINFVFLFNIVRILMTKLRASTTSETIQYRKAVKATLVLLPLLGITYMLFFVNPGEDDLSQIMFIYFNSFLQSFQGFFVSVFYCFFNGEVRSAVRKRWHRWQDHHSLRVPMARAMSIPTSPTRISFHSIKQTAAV
T3 sequence (P24387 whole entry): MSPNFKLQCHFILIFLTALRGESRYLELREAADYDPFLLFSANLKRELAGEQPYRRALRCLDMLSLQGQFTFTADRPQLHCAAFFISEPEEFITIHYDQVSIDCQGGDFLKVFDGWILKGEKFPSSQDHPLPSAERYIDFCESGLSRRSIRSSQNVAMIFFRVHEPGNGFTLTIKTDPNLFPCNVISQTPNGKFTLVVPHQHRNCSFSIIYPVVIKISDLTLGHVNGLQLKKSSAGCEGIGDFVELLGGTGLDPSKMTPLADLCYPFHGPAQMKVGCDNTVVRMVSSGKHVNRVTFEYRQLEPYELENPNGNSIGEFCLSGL
The assay is described as follows: activators of CRF receptor 2 with binding protein – uHTS hits, confirmation (AID 602473). The assay is classed as functional. The conditions noted are these: read-out: EC50_Mean.

The target in assay [9] is T4, 1-phosphatidylinositol 4,5-bisphosphate phosphodiesterase gamma-1 (Homo sapiens, UniProt P19174).
T4 sequence (P19174 whole entry): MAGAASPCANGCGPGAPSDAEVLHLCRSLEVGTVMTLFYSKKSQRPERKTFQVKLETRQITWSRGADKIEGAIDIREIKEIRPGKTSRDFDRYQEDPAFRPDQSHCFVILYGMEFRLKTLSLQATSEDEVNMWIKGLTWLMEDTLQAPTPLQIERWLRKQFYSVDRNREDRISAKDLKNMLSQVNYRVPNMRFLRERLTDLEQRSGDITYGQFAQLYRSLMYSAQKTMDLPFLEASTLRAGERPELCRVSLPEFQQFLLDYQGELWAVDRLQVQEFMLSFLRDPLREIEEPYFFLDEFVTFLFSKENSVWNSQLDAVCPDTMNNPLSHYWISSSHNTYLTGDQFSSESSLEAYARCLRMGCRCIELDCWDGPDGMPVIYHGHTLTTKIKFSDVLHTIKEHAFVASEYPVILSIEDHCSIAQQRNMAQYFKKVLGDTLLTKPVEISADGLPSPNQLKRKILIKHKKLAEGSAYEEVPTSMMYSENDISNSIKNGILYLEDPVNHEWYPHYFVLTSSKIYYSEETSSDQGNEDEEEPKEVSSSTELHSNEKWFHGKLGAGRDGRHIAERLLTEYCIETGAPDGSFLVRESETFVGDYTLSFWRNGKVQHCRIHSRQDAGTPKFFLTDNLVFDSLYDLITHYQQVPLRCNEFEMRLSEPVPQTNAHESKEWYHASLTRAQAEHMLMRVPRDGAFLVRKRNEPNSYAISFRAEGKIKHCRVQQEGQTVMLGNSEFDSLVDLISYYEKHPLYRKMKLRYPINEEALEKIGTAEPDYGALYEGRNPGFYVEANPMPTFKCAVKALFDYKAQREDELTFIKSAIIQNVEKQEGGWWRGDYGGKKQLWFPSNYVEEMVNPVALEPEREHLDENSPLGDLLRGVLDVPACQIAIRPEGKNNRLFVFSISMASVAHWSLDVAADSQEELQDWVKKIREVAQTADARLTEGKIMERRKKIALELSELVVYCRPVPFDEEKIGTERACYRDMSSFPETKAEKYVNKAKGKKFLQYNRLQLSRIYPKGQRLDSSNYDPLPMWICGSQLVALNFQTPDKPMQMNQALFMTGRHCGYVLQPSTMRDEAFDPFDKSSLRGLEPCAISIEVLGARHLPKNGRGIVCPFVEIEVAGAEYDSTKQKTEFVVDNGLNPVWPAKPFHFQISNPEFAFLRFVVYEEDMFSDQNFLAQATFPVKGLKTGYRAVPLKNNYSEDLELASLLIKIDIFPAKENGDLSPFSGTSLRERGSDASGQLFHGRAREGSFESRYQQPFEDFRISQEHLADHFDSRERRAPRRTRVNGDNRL
In words: Counterscreen for inhibitors of phospholipase C isozymes (PLC-B3): Fluorescence-based biochemical high throughput dose response assay to identify inhibitors of phospholipase C isozymes (PLC-gamma1).

Assay [10] addresses T3, Corticotropin-releasing factor receptor 2/Corticotropin-releasing factor-binding protein. The assay is described as follows: Dose Response confirmation of uHTS hits for small molecule antagonists of the CRF-binding protein and CRF-R2 receptor complex. The conditions noted are these: read-out: IC50_Mean. The assay is classed as functional.
A short description of assay [11]: Counterscreen for inhibitors of Trypanosoma brucei methionyl tRNA synthetase (MetRS): Luminescence-based cell-based high throughput dose response assay to identify compounds that are cytotoxic to Jurkat human T lymphocyte cells. Type of assay: functional. On the technique in general: Counterscreens check selectivity or assay interference.
Assay [12] concerns the target T5, DNA repair and recombination protein RAD54-like (Homo sapiens, UniProt Q92698).
T5 sequence (Q92698 whole entry): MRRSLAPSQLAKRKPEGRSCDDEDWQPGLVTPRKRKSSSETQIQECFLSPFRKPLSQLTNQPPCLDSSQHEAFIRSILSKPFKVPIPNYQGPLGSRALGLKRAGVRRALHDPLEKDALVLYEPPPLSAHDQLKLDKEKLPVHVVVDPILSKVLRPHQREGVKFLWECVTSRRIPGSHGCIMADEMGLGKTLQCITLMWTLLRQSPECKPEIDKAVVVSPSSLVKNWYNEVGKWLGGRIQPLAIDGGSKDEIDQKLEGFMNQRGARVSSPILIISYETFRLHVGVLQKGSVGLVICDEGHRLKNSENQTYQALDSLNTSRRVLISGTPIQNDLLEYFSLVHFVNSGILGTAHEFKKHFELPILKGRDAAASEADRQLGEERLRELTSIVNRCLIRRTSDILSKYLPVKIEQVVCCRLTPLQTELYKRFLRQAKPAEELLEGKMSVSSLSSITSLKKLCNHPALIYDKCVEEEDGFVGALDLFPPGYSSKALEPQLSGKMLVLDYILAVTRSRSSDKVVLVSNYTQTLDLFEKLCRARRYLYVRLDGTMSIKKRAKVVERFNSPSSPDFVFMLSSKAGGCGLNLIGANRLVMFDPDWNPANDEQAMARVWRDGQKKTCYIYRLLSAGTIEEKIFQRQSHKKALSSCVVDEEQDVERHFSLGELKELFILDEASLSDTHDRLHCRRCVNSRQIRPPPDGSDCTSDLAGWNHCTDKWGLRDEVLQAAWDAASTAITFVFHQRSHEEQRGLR
In words: RAD54 Holliday junction migration blockers – biochemical, fluorescence, cherry-picked samples, dose series, confirmation (AID 651657). Type of assay: functional.

A short description of assay [13]: activation of miR-122 Renilla sensor silencing – cell-based, Huh7 psiCHECK-miR122, Renilla luciferase, cherry-picked, dose response (AID 651956).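 Also: huh7 hepatoma cells stably carrying a psiCHECK-2 miR-122 sensor plasmid; renilla luciferase signal reporting endogenous miR-122 activity after 48 h compound exposure.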 Type of assay: functional.

Sequence of Kallikrein-7 (P49862 whole entry): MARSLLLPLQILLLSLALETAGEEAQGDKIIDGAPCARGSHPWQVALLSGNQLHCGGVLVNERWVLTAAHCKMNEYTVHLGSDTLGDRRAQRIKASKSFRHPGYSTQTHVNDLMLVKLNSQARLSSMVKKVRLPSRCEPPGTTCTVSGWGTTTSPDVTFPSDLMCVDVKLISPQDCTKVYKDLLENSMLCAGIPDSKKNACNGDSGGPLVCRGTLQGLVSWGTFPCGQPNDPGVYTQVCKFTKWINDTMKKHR
Sequence of Induced myeloid leukemia cell differentiation protein Mcl-1 (Q07820 whole entry): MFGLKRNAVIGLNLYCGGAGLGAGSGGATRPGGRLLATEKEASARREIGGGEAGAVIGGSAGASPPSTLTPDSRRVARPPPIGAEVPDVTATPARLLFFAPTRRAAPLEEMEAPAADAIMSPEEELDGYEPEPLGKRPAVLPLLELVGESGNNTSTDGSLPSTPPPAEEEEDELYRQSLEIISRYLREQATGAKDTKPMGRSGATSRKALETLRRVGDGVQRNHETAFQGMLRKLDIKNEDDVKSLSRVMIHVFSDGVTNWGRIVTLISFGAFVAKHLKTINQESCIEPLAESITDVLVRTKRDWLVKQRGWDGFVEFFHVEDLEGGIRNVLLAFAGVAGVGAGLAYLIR
Sequence of Voltage-dependent T-type calcium channel subunit alpha-1H (O95180 whole entry): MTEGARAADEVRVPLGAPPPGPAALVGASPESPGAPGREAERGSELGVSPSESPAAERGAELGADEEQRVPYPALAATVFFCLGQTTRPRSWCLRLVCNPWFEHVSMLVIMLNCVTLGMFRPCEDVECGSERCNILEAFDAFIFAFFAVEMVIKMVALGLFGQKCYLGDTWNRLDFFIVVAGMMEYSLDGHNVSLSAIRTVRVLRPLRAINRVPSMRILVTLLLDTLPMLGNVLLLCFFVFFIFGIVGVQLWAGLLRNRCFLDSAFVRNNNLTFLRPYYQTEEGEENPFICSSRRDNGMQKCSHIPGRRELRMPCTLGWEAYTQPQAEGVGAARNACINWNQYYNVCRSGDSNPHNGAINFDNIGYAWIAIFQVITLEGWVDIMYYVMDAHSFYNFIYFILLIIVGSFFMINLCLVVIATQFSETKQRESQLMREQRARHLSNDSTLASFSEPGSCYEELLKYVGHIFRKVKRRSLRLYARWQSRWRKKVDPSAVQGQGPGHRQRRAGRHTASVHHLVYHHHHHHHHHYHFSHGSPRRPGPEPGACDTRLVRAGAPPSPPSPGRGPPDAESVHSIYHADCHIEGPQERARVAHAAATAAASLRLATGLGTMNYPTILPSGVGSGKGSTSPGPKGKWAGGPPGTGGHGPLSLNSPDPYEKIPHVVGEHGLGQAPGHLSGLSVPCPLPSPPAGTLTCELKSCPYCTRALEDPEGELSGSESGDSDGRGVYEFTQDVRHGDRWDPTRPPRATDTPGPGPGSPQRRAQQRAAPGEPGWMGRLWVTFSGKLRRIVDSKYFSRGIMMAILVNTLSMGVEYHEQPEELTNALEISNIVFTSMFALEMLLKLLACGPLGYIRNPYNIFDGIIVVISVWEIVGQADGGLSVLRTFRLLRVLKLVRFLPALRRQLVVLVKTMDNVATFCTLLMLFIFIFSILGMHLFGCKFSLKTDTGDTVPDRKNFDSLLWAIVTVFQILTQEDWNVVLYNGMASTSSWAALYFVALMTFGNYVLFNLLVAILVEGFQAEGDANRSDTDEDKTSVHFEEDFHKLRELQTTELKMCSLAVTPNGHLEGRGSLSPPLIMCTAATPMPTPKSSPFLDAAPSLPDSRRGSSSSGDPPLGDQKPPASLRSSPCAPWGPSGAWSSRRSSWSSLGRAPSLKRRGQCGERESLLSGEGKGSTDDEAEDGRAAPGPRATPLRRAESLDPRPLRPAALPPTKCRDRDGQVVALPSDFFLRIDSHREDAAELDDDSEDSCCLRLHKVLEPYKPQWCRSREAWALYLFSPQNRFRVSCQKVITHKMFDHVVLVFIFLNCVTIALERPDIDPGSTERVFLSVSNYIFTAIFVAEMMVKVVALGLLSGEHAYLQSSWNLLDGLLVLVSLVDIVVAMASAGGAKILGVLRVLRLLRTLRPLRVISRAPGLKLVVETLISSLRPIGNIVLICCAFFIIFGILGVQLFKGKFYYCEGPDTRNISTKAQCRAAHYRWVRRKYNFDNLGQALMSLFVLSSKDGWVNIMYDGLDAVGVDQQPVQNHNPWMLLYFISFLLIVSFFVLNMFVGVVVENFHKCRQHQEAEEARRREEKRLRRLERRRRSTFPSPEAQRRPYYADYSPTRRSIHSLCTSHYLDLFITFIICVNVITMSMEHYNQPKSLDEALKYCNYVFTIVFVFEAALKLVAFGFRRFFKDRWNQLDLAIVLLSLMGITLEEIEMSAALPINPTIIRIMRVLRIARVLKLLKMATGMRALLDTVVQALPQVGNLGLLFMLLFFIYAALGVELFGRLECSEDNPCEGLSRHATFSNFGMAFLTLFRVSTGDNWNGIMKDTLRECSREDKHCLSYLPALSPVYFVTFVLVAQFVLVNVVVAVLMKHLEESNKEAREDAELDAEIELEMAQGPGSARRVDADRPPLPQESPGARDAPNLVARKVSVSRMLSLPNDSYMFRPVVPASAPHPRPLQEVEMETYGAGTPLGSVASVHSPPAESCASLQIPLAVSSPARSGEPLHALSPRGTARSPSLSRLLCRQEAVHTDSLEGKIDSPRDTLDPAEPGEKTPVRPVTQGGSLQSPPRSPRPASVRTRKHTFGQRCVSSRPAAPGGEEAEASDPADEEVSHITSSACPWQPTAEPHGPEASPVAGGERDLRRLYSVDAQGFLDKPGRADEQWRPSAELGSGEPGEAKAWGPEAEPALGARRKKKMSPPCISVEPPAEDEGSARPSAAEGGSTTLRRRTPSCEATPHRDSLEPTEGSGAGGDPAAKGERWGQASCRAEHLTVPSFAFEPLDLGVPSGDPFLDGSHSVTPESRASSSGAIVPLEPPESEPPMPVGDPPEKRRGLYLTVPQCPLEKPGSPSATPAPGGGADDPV

In the case of `Cc1ccc(-c2cc(C(=O)OCC(=O)N(C)C3CCS(=O)(=O)C3)c3ccccc3n2)o1` (stereo not drawn), the EC50 in assay [1] was 6.97 µM (active). The IC50 in assay [2] was 5.12 µM (active). For the molecule `CC(C)c1ccc(CNC(=O)CSCC(=O)Nc2ccc3ccccc3c2)cc1`, the AC50 in assay [3] was 4.3 µM (active). As to `N#C/C(=C/c1ccc(N2CCOCC2)o1)c1ccc(Cl)cc1`, the cytotoxic concentration (CC50) in assay [4] is 100 µM (active). Take `O=C(CSc1ccsc1[N+](=O)[O-])NCc1ccco1`: in [5], the half-maximal activity concentration (AC50) was 9.2 µM (active). On to `COc1ccccc1CC(=O)Nc1ccc(NC(=O)c2cccs2)cc1`, for which the EC50 in assay [1] is 7.57 µM (active). Consider `O=S(=O)(c1ccccc1)c1cnn(-c2ccccc2)c1-c1ccc(F)cc1`, for which the EC50 in assay [6] is 5.16 µM (active); in assay [8], > 53 µM (inactive). The IC50 in [7] was > 123 µM (inactive); in [9], > 123 µM (inactive); in [10], > 47.1 µM (inactive). `COc1ccc(CC(=O)OCC(=O)Nc2ccc(Br)cc2)cc1`: the IC50 in [11] was 83.3 µM (inactive). Regarding `COc1ccc(CCn2c(=N)c(C(=O)NCCN3CCOCC3)cc3c(=O)n4cccc(C)c4nc32)cc1OC`, the AC50 in [12] was 6.24 µM (active). With `CC(=O)Nc1ccc(-c2nc3ccc(NC(C)=O)cc3o2)cc1`, in assay [1], the EC50 is > 69.5 µM (inactive).

As to `C/C=C/c1ccc2c(c1)O[C@H](CN(C)C(=O)Nc1cccc(F)c1)[C@H](C)CN([C@@H](C)CO)S2(=O)=O`, the AC50 in [13] is 31.9 µM (active). `CCNC(=O)C[C@H]1CC[C@H]2[C@@H](COc3ccc(NC(=O)c4ccc5c(c4)OCO5)cc3C(=O)N2C)O1`: the IC50 in [7] is 45.1 µM (inactive); in assay [9] it was 47.8 µM (inactive). In the case of `Cc1nccc2c1[nH]c1ccccc12` [HARMAN], the AC50 in [12] is 58.4 µM (active).

What is called AC50 is the concentration at which the activity in the assay is half-maximal. As usually defined, the CC50 is the concentration giving 50% cytotoxicity.
